Data on 14 compounds can be found in patent publication US8754259B2, “Synthesis of cyclohexane derivatives useful as sensates in consumer products” (The Proctor & Gamble Company, priority 2008, dated 2014).

Data set [1] is described as follows: Sensory studies of coolant activity (G-180 and neoisomer vs menthol). Conditions: for burning sensation: sensory evaluations by panelists. Format: in vivo, human. How it is done:
The coolant properties of the materials prepared according to the present methods are evaluated using sensory studies. […] By contrast, both the G-180 and neoisomer materials provided a sensation that lasted longer than about 15 minutes. The cooling potency of the neoisomer is particularly unexpected, since stereochemistry is a major factor influencing coolant activity and potency for menthol and menthol derivatives as reported in previous studies. [See for example, R. Emberger and R. Hopp (1987), Specialty Chemicals, 7(3), 193-201; R. Eccles (1990), Chemical Senses, 2, 275-291; S. Rovner (2007), Chemical & Engineering News, 85(39), 95-98]. […] The effect on activity of these isomers is far more significant than is observed with menthol.
Sensory evaluation studies of coolant activity may be conducted using a methodology patterned after the techniques described in M. C. Meilgaard, et al., Sensory Evaluation Techniques, 4th Ed. (2007). A panel of trained sensory experts evaluates cooling sensation experienced after using a product with coolant, for example by brushing with a dentifrice or rinsing with an aqueous rinse. In one protocol, panelists brush teeth with 1.5 grams of a test dentifrice (containing coolant) or control (no coolant) and then expectorate. After brush expectoration, panelists evaluate cooling intensity, assigning a number between 0 (no cooling) to 60 (intense cooling). In a rinse protocol, panelists rinse mouth with 15 ml. of an aqueous rinse and expectorate. After rinse expectoration, panelists evaluate cooling intensity according to the same 0 to 60 scale. Evaluations are conducted various time points, for example, at 5, 15, 30, 45, 60 minute, etc. At each evaluation, panelists are instructed to breathe in through pursed lips and evaluate overall cooling sensation. In this test, a numerical score of 7.5 indicates meaningful or definite cooling.

The conditions of data set [2]: concentration where the cooling effect could be clearly recognized; cited from earlier work.
Data set [3] can be described thus: Cooling rating of test dentifrices relative to control dentifrice, panelists n=9. Format: in vivo, human. Particulars: for Cooling Rating Relative to Control: control = 60 on 1-90 scale; for cooling power compared to l-menthyl lactate: in words, dentifrice panel test, 60 minute period. How it is done: The neo-coolants synthesized according to the routes outlined herein were tested to rate their cooling power compared with the corresponding l-isomers (commercially available samples) using the following protocol. Control and test coolants were formulated into a dentifrice at various levels according to the following formula.
Panelists (n=9) were instructed to brush for 30 seconds with a control dentifrice (containing a mixture of coolants 1500 ppm l-WS-3, 3000 ppm Menthol, 3000 ppm MGA and 1000 ppm WS-23), expectorate, and assign the control dentifrice a cooling rating of 60 on a 1-90 scale. The panelists were then given the test dentifrices in random order and instructed to brush and rate each sample relative to the control over a 60-minute period. Cooling ratings relative to control are summarized below.

[4] abbreviates: 0 min, 500 ppm coolant in dentifrice.
The mark [5] stands for this setting: 15 min, 500 ppm coolant in dentifrice.
Where [6] appears, read: 30 min, 500 ppm coolant in dentifrice.
Where [7] appears, read: 45 min, 500 ppm coolant in dentifrice.
The mark [8] stands for this setting: 60 min, 500 ppm coolant in dentifrice.
Setting [9] is: 0 min, 1500 ppm coolant in dentifrice.
Setting [10] is: 15 min, 1500 ppm coolant in dentifrice.
The mark [11] stands for this setting: 30 min, 1500 ppm coolant in dentifrice.
Where [12] appears, read: 45 min, 1500 ppm coolant in dentifrice.
The mark [13] stands for this setting: 60 min, 1500 ppm coolant in dentifrice.

Consider `CC(C)[C@@H]1CC[C@@H](C)C[C@H]1C(=O)Nc1ccc(CC#N)cc1` [G-180, N-[4-(cyanomethyl)phenyl]-(1R,2S,5R)-2-isopropyl-5-methylcyclohexanecarboxamide, reference compound], for which the burning sensation entry in data set [1] was ““burning” sensation especially when used at fairly high levels”.

In the case of `CC(C)[C@@H]1CC[C@@H](C)C[C@H]1O` [L-menthol, l-menthol, reference compound], the “course of cooling sensation after use” value in data set [1] (sensory studies) is recorded as “drops sharply within a few minutes after use”. Besides, in data set [2], the cooling threshold entry was “about 800 ppb”.

`CC(C)[C@@H]1CC[C@@H](C)C[C@@H]1C(=O)Nc1ccc(CC#N)cc1` [Neo-G-180, N-[4-(cyanomethyl)phenyl]-(1S,2S,5R)-2-isopropyl-5-methylcyclohexanecarboxamide] registered a melting point of 167 to 169 °C. Besides, in data set [1] (in vivo), the cooling properties entry was “excellent cooling properties”. For the same compound, the burning sensation result in data set [1] is given as “significantly less of the “burning” sensation”.

With `CC1CCC(C(C)C)C(OC(=O)C(C)O)C1` [Neo-Menthyl lactate (2S)], the “Cooling Rating Relative to Control” value in data set [3] (setting [4]) is 62.2; in data set [3] (setting [5]), 43.9; in data set [3] (setting [6]), 33.9; in data set [3] (setting [7]), 27.5; in data set [3] (setting [8]), 16.7. Further, the “cooling power compared to l-menthyl lactate” value in data set [3] is “very strong initial cooling as well as over the 60 minute time period”.

As to `CC(=O)O[C@@H](C)C(=O)O[C@H]1C[C@H](C)CC[C@H]1C(C)C` [Neo-Menthyl lactate acetate (2S), (1S,2S,5R)-2-isopropyl-5-methylcyclohexyl-2(S)-acetoxypropanoate], the “Cooling Rating Relative to Control” value turned out to be 64.4 in data set [3] (0 min, 335 ppm coolant in dentifrice); 46.3 in data set [3] (15 min, 335 ppm coolant in dentifrice); 33.1 in data set [3] (30 min, 335 ppm coolant in dentifrice); 26.3 in data set [3] (45 min, 335 ppm coolant in dentifrice); 21.3 in data set [3] (60 min, 335 ppm coolant in dentifrice). Besides, the “cooling power compared to l-menthyl lactate” value in data set [3] is given as “very strong initial cooling as well as over the 60 minute time period”.

Regarding `CC(=O)C(=O)OC1CC(C)CCC1C(C)C` (stereo not shown) [Neo-Menthyl pyruvate], the “Cooling Rating Relative to Control” value in data set [3] (0 min, 1000 ppm coolant in dentifrice) came out at 57.8; in data set [3] (15 min, 1000 ppm coolant in dentifrice), 45.0; in data set [3] (30 min, 1000 ppm coolant in dentifrice) it was 30.6; in data set [3] (45 min, 1000 ppm coolant in dentifrice) it was 21.1; in data set [3] (60 min, 1000 ppm coolant in dentifrice), 16.1.

For the compound `CCNC(=O)[C@H]1C[C@H](C)CC[C@H]1C(C)C` [Neo-WS-3], the “Cooling Rating Relative to Control” value worked out at 43.3 in data set [3] (setting [9]); 33.9 in data set [3] (setting [10]); 23.3 in data set [3] (setting [11]); 16.7 in data set [3] (setting [12]); 13.3 in data set [3] (setting [13]).

Consider `CCOC(=O)CNC(=O)[C@H]1C[C@H](C)CC[C@H]1C(C)C` [NeoWS-5], for which the “Cooling Rating Relative to Control” value in data set [3] (setting [9]) is 61.9; in data set [3] (setting [10]), 39.3; in data set [3] (setting [11]), 29.3; in data set [3] (setting [12]) it was 21.4; in data set [3] (setting [13]), 15.7.

For the compound `CC(C)[C@@H]1CC[C@@H](C)C[C@@H]1O` [d-neomenthol], in data set [2], the cooling threshold result is reported as “about 25,000 ppb”.

Regarding `CC(C)[C@@H]1CC[C@@H](C)C[C@H]1OC(=O)[C@H](C)O` [l-Menthyl lactate (2S), reference compound], the “Cooling Rating Relative to Control” value is 50.0 in data set [3] (setting [4]); 38.0 in data set [3] (setting [5]); 26.5 in data set [3] (setting [6]); 18.5 in data set [3] (setting [7]); 13.5 in data set [3] (setting [8]).

`CCNC(=O)C1CC(C)CCC1C(C)C` (stereo not drawn) [l-WS-3, N-ethyl-ρ-menthan-3-carboxamide, reference compound]: the “Cooling Rating Relative to Control” value in data set [3] (setting [9]) turned out to be 53.5; in data set [3] (setting [10]), 36.5; in data set [3] (setting [11]) it was 27.0; in data set [3] (setting [12]), 20.5; in data set [3] (setting [13]), 15.5.

Regarding `CCOC(=O)CNC(=O)C1CC(C)CCC1C(C)C` (stereo not drawn) [l-WS-5, N-ethoxycarbonylmethyl-ρ-menthan-3-carboxamide, reference compound], the “Cooling Rating Relative to Control” value is on record as 53.9 in data set [3] (setting [9]); 40.0 in data set [3] (setting [10]); 26.7 in data set [3] (setting [11]); 17.8 in data set [3] (setting [12]); 13.3 in data set [3] (setting [13]).

Turning to `CC(C)[C@H]1CC[C@H](C)C[C@H]1O` [l-neomenthol], the cooling threshold result in data set [2] is given as “about 3,000 ppb”.

With “Neo-Menthyl lactate [Neo-Menthyl lactate (~2:1 S:R)]”, the “Cooling Rating Relative to Control” value in data set [3] (0 min, 1950 ppm coolant in dentifrice) turned out to be 50.6; in data set [3] (15 min, 1950 ppm coolant in dentifrice), 42.8; in data set [3] (30 min, 1950 ppm coolant in dentifrice), 30.6; in data set [3] (45 min, 1950 ppm coolant in dentifrice), 22.2; in data set [3] (60 min, 1950 ppm coolant in dentifrice), 16.7.

The term melting point denotes the temperature, or range, at which the solid turns liquid.
